We go through one molecule from US12295937B2, “Psychoactive medicines and their use for treating psychiatric and neurological conditions and disorders” (Transcend Therapeutics, Inc., priority 2021, dated 2025).

Data set [1] concerns the target T1, 5HT5A (Homo sapiens, UniProt P47898).
T1 construct: host or cells: PathHunter cell lines
As to the kind of experiment: GPCRmax screen, agonist mode, 5HT5A. It is filed as cell-based. As to conditions: 1 or 10 mM.

A short description of data set [2]: Excipient compatibility study (assay, appearance, degradation products). It counts as physicochemical. How it is done:
Analyses were conducted at t=0, 2, 4 and 8 weeks for appearance, assay, and related substances for samples stored in closed vials at 25° C./60% RH and 40° C./75% RH.
Excipient Compatibility Sample Mixtures: The excipients and API were dispensed individually by weight into 20 mL clear borosilicate (type I) glass vials to fill the appropriate weights as listed in Table 12. Table 12 lists mixtures of API with varied excipients and a stand-alone control sample of API alone. Each excipient mixture sample preparation was conducted using a clean spatula to mix the vial ingredients for 30-60 seconds. Each vial was properly labeled with the description and storage conditions. One vial was used for testing at the initial (t=0) time point. Three vials, closed, were placed at each storage condition to allow sampling at each time point and one vial, closed, was placed at each storage condition for overage.

Data set [3] addresses 168 GPCRs (Homo sapiens, UniProt Q16602). As to the kind of experiment: β-arrestin GPCR screen (PathHunter / GPCRmax), agonist mode. As to conditions: CALCRL-RAMP3, 1 uM. On the set-up: host or cells: PathHunter cell lines. It is filed as cell-based. As to the method: For agonist determination, cells were incubated with sample to induce response. […] Vehicle concentration was 1%.

In data set [4] the target is SERT (Rattus norvegicus, UniProt P31652). As to the kind of experiment: [3H]5-HT release from rat brain synaptosomes. It counts as biochemical. Also on record: from tissue; synaptosomes for uptake and release. The following applies: rat brain synaptosomes; read-out: Neurotransmitter release: EC50. How it is done: Test compounds and synaptosomes were prepared as described for uptake inhibition assays. Synaptosomes treated with [^3H]5-HT, [^3H]DA or [^3H]NE were loaded onto filter chambers containing GF/C filters and placed in a superfusion system. Oxygenated Krebs buffer was perfused through the chambers at a rate of 1.5 mL/minute at 35° C. using either an 8-channel or a 12-channel peristaltic pump. Trapped air bubbles were removed from the filters prior to collecting fractions to ensure an even flow over the synaptosomal bed. After a superfusion period of 45 minutes, 2 basal fractions were collected followed by 6 fractions following the addition of the test drug. […] Scintillation cocktail was added, and the filters counted to determine residual radioactivity. Drug-evoked release of neurotransmitter was calculated by subtracting the average of the two basal fractions (collected prior to the drug addition), from the four fractions collected in the presence of drug. The drug-evoked release was then expressed as a percentage of the basal release. Potassium-evoked release was calculated by subtracting the average of two fractions collected prior to the addition of high KCl buffer from that in the two fractions following addition of high KCl buffer. Potassium-stimulated release was calculated as a percentage of basal release. […]
Chain of SERT (P31652 whole entry, the tested form may be a part): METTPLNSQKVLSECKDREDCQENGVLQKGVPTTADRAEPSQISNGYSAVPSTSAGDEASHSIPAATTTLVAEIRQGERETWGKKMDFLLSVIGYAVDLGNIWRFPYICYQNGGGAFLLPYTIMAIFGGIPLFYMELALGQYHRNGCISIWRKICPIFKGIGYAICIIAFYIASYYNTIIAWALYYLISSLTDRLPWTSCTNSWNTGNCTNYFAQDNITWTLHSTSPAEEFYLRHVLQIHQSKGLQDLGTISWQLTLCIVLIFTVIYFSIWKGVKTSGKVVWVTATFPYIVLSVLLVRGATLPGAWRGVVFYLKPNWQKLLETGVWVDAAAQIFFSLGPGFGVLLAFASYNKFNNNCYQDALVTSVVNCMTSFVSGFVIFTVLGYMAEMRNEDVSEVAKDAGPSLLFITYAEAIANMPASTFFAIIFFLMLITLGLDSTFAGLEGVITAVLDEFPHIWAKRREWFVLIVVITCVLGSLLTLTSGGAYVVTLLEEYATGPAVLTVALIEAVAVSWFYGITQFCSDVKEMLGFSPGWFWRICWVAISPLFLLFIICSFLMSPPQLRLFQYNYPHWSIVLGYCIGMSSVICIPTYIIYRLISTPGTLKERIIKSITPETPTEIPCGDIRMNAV

Structures are written as SMILES. Where only a bound is given, the exact number is not on record here.

Chain of 168 GPCRs (Q16602 23-461): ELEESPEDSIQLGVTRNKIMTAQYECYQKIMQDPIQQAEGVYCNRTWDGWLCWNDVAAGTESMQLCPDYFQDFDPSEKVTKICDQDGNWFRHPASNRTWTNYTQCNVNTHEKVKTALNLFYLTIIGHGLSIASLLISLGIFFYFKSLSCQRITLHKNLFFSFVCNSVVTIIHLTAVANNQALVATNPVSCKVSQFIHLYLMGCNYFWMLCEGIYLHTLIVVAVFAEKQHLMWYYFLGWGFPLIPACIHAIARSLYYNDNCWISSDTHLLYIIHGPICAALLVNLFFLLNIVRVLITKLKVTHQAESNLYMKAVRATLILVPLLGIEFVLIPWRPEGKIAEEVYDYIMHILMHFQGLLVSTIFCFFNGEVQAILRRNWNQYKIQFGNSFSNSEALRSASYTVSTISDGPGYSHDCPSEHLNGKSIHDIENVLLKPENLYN
T1 sequence (P47898 whole entry): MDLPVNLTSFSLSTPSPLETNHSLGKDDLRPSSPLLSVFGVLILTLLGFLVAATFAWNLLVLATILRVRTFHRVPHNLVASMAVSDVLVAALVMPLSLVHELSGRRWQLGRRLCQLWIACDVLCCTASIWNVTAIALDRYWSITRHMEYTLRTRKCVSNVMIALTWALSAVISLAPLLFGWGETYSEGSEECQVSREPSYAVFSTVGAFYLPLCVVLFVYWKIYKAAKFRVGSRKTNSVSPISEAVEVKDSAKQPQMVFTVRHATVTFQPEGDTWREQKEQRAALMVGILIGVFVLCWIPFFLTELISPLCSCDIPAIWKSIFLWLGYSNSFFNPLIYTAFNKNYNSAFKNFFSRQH

For orientation: EC50 means the concentration needed to bring the measured effect to its halfway point. Turning to `CNC(C)C(=O)c1ccc2c(c1)OCO2` (centres unmarked) [Methylone, 3,4-methylenedioxy-N-methylcathinone], in data set [1], the “Agonist % activity (greatest activity detected)” value is 13.9%. Moreover, the “Total Degradation Products” value is “<LOQ” in data set [2] (2 Week 25° C. 60% RH); “<LOQ” in data set [2] (2 Week 40° C. 75% RH); “<LOQ” in data set [2] (4 Week 25° C. 60% RH); “<LOQ” in data set [2] (8 Week 25° C. 60% RH); “<LOQ” in data set [2] (t = 0, LOQ ≥ 0.1%). The “% Activity” value in data set [3] is reported as −2.2%. The EC50 in data set [4] stood at 620 nM.
